For 22 molecules, IC50 results are on record in ChEMBL document CHEMBL3886334, “Fragment ligated inhibitors selective for the polo box domain of PLK1” (2015).

Structures are written as SMILES.

The assay concerns the target Serine/threonine-protein kinase PLK1 (Homo sapiens, UniProt P53350). Briefly: Fluorescent Polarization Binding Assay: The buffer composition was 50 mM Tris, 200 mM NaCl, 2.0 mM DTT, and 0.005% Tween 20 (pH 8.0). Fragment ligated inhibitors and comparison peptides to be tested in the binding assay were dissolved in dimethyl sulfoxide (DMSO) to a concentration of 10 mM, compounds were utilized in a range of concentrations from 10 nM to 600 μM. The PLK1 PBD protein (residues ….

Serine/threonine-protein kinase PLK1, sequence (P53350 whole entry, the tested form may be a part): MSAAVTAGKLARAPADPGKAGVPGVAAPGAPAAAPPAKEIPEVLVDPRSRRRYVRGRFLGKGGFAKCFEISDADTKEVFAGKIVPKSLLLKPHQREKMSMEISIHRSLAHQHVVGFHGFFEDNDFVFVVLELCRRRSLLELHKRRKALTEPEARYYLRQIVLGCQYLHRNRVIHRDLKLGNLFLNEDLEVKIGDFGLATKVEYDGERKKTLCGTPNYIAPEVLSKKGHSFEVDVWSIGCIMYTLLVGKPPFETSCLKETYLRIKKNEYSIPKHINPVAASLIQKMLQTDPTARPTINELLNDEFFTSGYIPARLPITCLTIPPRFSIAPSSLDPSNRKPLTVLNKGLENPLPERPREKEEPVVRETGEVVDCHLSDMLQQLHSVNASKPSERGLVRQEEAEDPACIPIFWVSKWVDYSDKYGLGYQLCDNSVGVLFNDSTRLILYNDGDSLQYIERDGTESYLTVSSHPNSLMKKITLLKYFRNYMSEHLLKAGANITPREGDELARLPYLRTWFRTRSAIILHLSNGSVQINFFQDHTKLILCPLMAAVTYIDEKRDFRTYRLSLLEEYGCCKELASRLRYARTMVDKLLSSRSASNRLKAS

The IC50 is the concentration that inhibits the measured activity by half. A lower IC50 goes with greater potency in that assay. As for `CNC(=O)c1sc(C(F)(F)F)c(-c2ccccc2)c1N`, the IC50 is > 600 µM.
Consider `CNC(=O)CN1C(=O)COc2ccc(C)cc21`, for which the half-maximal inhibitory concentration (IC50) is 350 µM.
The result for `CNC(=O)c1ccc(NC)cc1` reads 31.2 µM.
For the molecule `CNC(=O)c1cc(-c2ccccc2)c(C(F)(F)F)s1`, the IC50 was found to be 500 µM.
Molecule `CNC(=O)c1cc(OC)c2c(c1)OCCO2` registered a concentration for half-maximal inhibition (IC50) of 300 µM.
For the molecule `CNC(=O)c1ccc(SC)cc1`, the 50% inhibitory concentration (IC50) was 18.5 µM.
In turn, `CCc1ccc(C(=O)NC)cc1` showed a half-maximal inhibitory concentration (IC50) of 16.5 µM.
`CCCOc1ccc(C(=O)NC)cc1`: the half-maximal inhibitory concentration (IC50) is 29.5 µM.
The molecule `CNC(=O)c1cc(-c2cccc(OC)c2)n[nH]1` had an IC50 of 380 µM.
As to `CCOc1ccc(C(=O)NC)cc1`, the half-inhibitory concentration (IC50) was 64.7 µM.
The molecule `CNC(=O)Cn1cc(-c2ccc(C)cc2)ncc1=O` registered an IC50 of 250 µM.
`CNC(=O)c1ccc(OC)c2ccccc12` showed a half-maximal inhibitory concentration (IC50) of 99 µM.
`CNC(=O)c1ccc(OC)cc1`: the 50% inhibitory concentration (IC50) was 125 µM.
Molecule `CCCc1ccc(C(=O)NC)cc1` registered a concentration for half-maximal inhibition (IC50) of 10.8 µM.
The molecule `CNC(=O)c1cccc2ccccc12` returned an IC50 of 104 µM.
Consider `CCCNc1ccc(C(=O)NC)cc1`, for which the half-maximal inhibitory concentration (IC50) was 16.5 µM.
The molecule `CCCCc1ccc(C(=O)NC)cc1` showed an IC50 of 8.6 µM.
In turn, `CNC(=O)c1ccc2ncccc2c1` returned an IC50 of 400 µM.
Consider `CNC(=O)c1ccc(-c2noc(C)n2)cc1`, for which the concentration for half-maximal inhibition (IC50) stood at 320 µM.
In turn, `CNC(=O)CSc1ncnc2sc(C)cc12` returned an IC50 of 475 µM.
The result for `CNC(=O)c1cn(S(=O)(=O)c2ccccc2)c2ccccc12` reads 375 µM; that for `CNC(=O)c1cc(-c2ccccc2)n(-c2ccccc2)c1C`, 600 µM.
